# Assay results from the supplement of paper PMC8612539.
# System: Pasteurella multocida
# Assay: minimum inhibitory concentration (MIC)
# Description: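 Broth microdilution MIC (Sensititre BOPO7F bovine plate, CLSI methods) of 19 antimicrobials against field isolates of P. multocida, M. haemolytica, H. somni (deep nasopharyngeal swabs) and E. coli, Enterococcus spp. (rectal swabs) from weaned dairy heifers. Incubation 16-24 h at 35 C. MIC is the lowest concentration preventing visible growth. Values with <= or > lie at the tested range limits. Trimethoprim-sulfamethoxazole is given as the trimethoprim component of a 1:19 mixture.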
structure (smiles),measurement,setting,value
CC[C@H]1OC(=O)C[C@@H](O)[C@H](C)[C@@H](O[C@@H]2O[C@H](C)[C@@H](O)[C@H](N(C)C)[C@H]2O)[C@@H](CCN2CCCCC2)C[C@@H](C)C(=O)/C=C/C(C)=C/[C@@H]1CN1CCCCC1 [Tildipirosin],minimum inhibitory concentration,isolate (source animal id): 10,> 16 µg/mL
same,minimum inhibitory concentration,isolate (source animal id): 11,> 16 µg/mL
same,minimum inhibitory concentration,isolate (source animal id): 12,> 16 µg/mL
same,minimum inhibitory concentration,isolate (source animal id): 19,> 16 µg/mL
same,minimum inhibitory concentration,isolate (source animal id): 23,> 16 µg/mL
same,minimum inhibitory concentration,isolate (source animal id): 26,> 16 µg/mL
same,minimum inhibitory concentration,isolate (source animal id): 98,> 16 µg/mL
same,minimum inhibitory concentration,isolate (source animal id): 104,> 16 µg/mL
same,minimum inhibitory concentration,isolate (source animal id): 115,> 16 µg/mL
same,minimum inhibitory concentration,isolate (source animal id): 117,> 16 µg/mL
same,minimum inhibitory concentration,isolate (source animal id): 118,> 16 µg/mL
same,minimum inhibitory concentration,isolate (source animal id): 121,> 16 µg/mL
same,minimum inhibitory concentration,isolate (source animal id): 124,> 16 µg/mL
same,minimum inhibitory concentration,isolate (source animal id): 125,> 16 µg/mL
same,minimum inhibitory concentration,isolate (source animal id): 128,> 16 µg/mL
same,minimum inhibitory concentration,isolate (source animal id): 131,> 16 µg/mL
same,minimum inhibitory concentration,isolate (source animal id): 135,> 16 µg/mL
same,minimum inhibitory concentration,isolate (source animal id): 136,> 16 µg/mL
same,minimum inhibitory concentration,isolate (source animal id): 140,> 16 µg/mL
same,minimum inhibitory concentration,isolate (source animal id): 144,> 16 µg/mL
same,minimum inhibitory concentration,isolate (source animal id): 146,> 16 µg/mL
same,minimum inhibitory concentration,isolate (source animal id): 150,> 16 µg/mL
same,minimum inhibitory concentration,isolate (source animal id): 151,> 16 µg/mL
same,minimum inhibitory concentration,isolate (source animal id): 153,> 16 µg/mL
same,minimum inhibitory concentration,isolate (source animal id): 155,> 16 µg/mL
same,minimum inhibitory concentration,isolate (source animal id): 157,> 16 µg/mL
same,minimum inhibitory concentration,isolate (source animal id): 160,> 16 µg/mL
same,minimum inhibitory concentration,isolate (source animal id): 164,> 16 µg/mL
same,minimum inhibitory concentration,isolate (source animal id): 165,> 16 µg/mL
same,minimum inhibitory concentration,isolate (source animal id): 167,≤ 1 µg/mL
same,minimum inhibitory concentration,isolate (source animal id): 168,> 16 µg/mL
same,minimum inhibitory concentration,isolate (source animal id): 169,≤ 1 µg/mL
same,minimum inhibitory concentration,isolate (source animal id): 170,2 µg/mL
same,minimum inhibitory concentration,isolate (source animal id): 171,≤ 1 µg/mL
same,minimum inhibitory concentration,isolate (source animal id): 172,≤ 1 µg/mL
same,minimum inhibitory concentration,isolate (source animal id): 173,> 16 µg/mL
same,minimum inhibitory concentration,isolate (source animal id): 174,≤ 1 µg/mL
same,minimum inhibitory concentration,isolate (source animal id): 175,≤ 1 µg/mL
same,minimum inhibitory concentration,isolate (source animal id): 176,≤ 1 µg/mL
same,minimum inhibitory concentration,isolate (source animal id): 177,≤ 1 µg/mL
same,minimum inhibitory concentration,isolate (source animal id): 178,≤ 1 µg/mL
same,minimum inhibitory concentration,isolate (source animal id): 179,≤ 1 µg/mL
same,minimum inhibitory concentration,isolate (source animal id): 182,2 µg/mL
same,minimum inhibitory concentration,isolate (source animal id): 192,≤ 1 µg/mL
same,minimum inhibitory concentration,isolate (source animal id): 193,≤ 1 µg/mL
same,minimum inhibitory concentration,isolate (source animal id): 195,≤ 1 µg/mL
same,minimum inhibitory concentration,isolate (source animal id): 196,≤ 1 µg/mL
same,minimum inhibitory concentration,isolate (source animal id): 197,2 µg/mL
same,minimum inhibitory concentration,isolate (source animal id): 198,> 16 µg/mL
same,minimum inhibitory concentration,isolate (source animal id): 199,≤ 1 µg/mL
same,minimum inhibitory concentration,isolate (source animal id): 200,≤ 1 µg/mL
same,minimum inhibitory concentration,isolate (source animal id): 201,≤ 1 µg/mL
same,minimum inhibitory concentration,isolate (source animal id): 203,≤ 1 µg/mL
same,minimum inhibitory concentration,isolate (source animal id): 204,≤ 1 µg/mL
same,minimum inhibitory concentration,isolate (source animal id): 205,> 16 µg/mL
same,minimum inhibitory concentration,isolate (source animal id): 206,≤ 1 µg/mL
same,minimum inhibitory concentration,isolate (source animal id): 207,≤ 1 µg/mL
same,minimum inhibitory concentration,isolate (source animal id): 208,≤ 1 µg/mL
same,minimum inhibitory concentration,isolate (source animal id): 209,≤ 1 µg/mL
same,minimum inhibitory concentration,isolate (source animal id): 210,> 16 µg/mL
same,minimum inhibitory concentration,isolate (source animal id): 213,2 µg/mL
same,minimum inhibitory concentration,isolate (source animal id): 216,≤ 1 µg/mL
same,minimum inhibitory concentration,isolate (source animal id): 223,> 16 µg/mL
same,minimum inhibitory concentration,isolate (source animal id): 227,≤ 1 µg/mL
same,minimum inhibitory concentration,isolate (source animal id): 229,> 16 µg/mL
same,minimum inhibitory concentration,isolate (source animal id): 233,> 16 µg/mL
same,minimum inhibitory concentration,isolate (source animal id): 234,> 16 µg/mL
same,minimum inhibitory concentration,isolate (source animal id): 237,> 16 µg/mL
same,minimum inhibitory concentration,isolate (source animal id): 241,> 16 µg/mL
same,minimum inhibitory concentration,isolate (source animal id): 245,> 16 µg/mL
same,minimum inhibitory concentration,isolate (source animal id): 247,> 16 µg/mL
same,minimum inhibitory concentration,isolate (source animal id): 250,> 16 µg/mL
same,minimum inhibitory concentration,isolate (source animal id): 254,> 16 µg/mL
same,minimum inhibitory concentration,isolate (source animal id): 255,> 16 µg/mL
same,minimum inhibitory concentration,isolate (source animal id): 258,≤ 1 µg/mL
same,minimum inhibitory concentration,isolate (source animal id): 261,> 16 µg/mL
same,minimum inhibitory concentration,isolate (source animal id): 262,> 16 µg/mL
same,minimum inhibitory concentration,isolate (source animal id): 269,≤ 1 µg/mL
same,minimum inhibitory concentration,isolate (source animal id): 270,> 16 µg/mL
same,minimum inhibitory concentration,isolate (source animal id): 274,> 16 µg/mL
same,minimum inhibitory concentration,isolate (source animal id): 275,> 16 µg/mL
same,minimum inhibitory concentration,isolate (source animal id): 276,> 16 µg/mL
same,minimum inhibitory concentration,isolate (source animal id): 277,≤ 1 µg/mL
same,minimum inhibitory concentration,isolate (source animal id): 278,> 16 µg/mL
same,minimum inhibitory concentration,isolate (source animal id): 279,> 16 µg/mL
same,minimum inhibitory concentration,isolate (source animal id): 280,> 16 µg/mL
same,minimum inhibitory concentration,isolate (source animal id): 284,> 16 µg/mL
same,minimum inhibitory concentration,isolate (source animal id): 285,> 16 µg/mL
same,minimum inhibitory concentration,isolate (source animal id): 287,> 16 µg/mL
same,minimum inhibitory concentration,isolate (source animal id): 290,> 16 µg/mL
same,minimum inhibitory concentration,isolate (source animal id): 294,> 16 µg/mL
same,minimum inhibitory concentration,isolate (source animal id): 295,> 16 µg/mL
same,minimum inhibitory concentration,isolate (source animal id): 296,> 16 µg/mL
same,minimum inhibitory concentration,isolate (source animal id): 307,> 16 µg/mL
same,minimum inhibitory concentration,isolate (source animal id): 310,> 16 µg/mL
same,minimum inhibitory concentration,isolate (source animal id): 311,> 16 µg/mL
same,minimum inhibitory concentration,isolate (source animal id): 312,> 16 µg/mL
same,minimum inhibitory concentration,isolate (source animal id): 313,> 16 µg/mL
same,minimum inhibitory concentration,isolate (source animal id): 315,> 16 µg/mL
same,minimum inhibitory concentration,isolate (source animal id): 316,> 16 µg/mL
